Measured values: PubChem BioAssay (NCI)
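A five-concentration, 48-hour dose response in 96-well plates underlies each endpoint, interpolated linearly between surrounding concentrations. Definition used: TGI = concentration required for complete inhibition of growth.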

Legend:
Assay in all cases: NCI anticancer screen, dose series, 48 h
PC-3 prostate = system: PC-3 prostate
SF-539 CNS = system: SF-539 CNS
SK-MEL-5 melanoma = system: SK-MEL-5 melanoma
SR leukemia = system: SR leukemia
COLO 205 colon = system: COLO 205 colon
HOP-62 NSCLC = system: HOP-62 NSCLC
MDA-N = system: MDA-N
A498 renal = system: A498 renal
A549 NSCLC = system: A549 NSCLC
NCI-H23 lung = system: NCI-H23 lung
HOP-92 NSCLC = system: HOP-92 NSCLC
MOLT-4 leukemia = system: MOLT-4 leukemia
NCI/ADR-RES ovarian = system: NCI/ADR-RES ovarian
HCT-15 colon = system: HCT-15 colon
M14 melanoma = system: M14 melanoma
UACC-257 melanoma = system: UACC-257 melanoma
RXF 393 renal = system: RXF 393 renal
MDA-MB-231 breast = system: MDA-MB-231 breast
SK-OV-3 ovarian = system: SK-OV-3 ovarian
SNB-19 CNS = system: SNB-19 CNS
HT29 colon = system: HT29 colon
SF-268 CNS = system: SF-268 CNS
SN12C renal = system: SN12C renal
K-562 leukemia = system: K-562 leukemia
BT-549 breast = system: BT-549 breast
SK-MEL-2 melanoma = system: SK-MEL-2 melanoma
OVCAR-4 ovarian = system: OVCAR-4 ovarian
IGROV1 ovarian = system: IGROV1 ovarian
SK-MEL-28 melanoma = system: SK-MEL-28 melanoma
SW-620 colon = system: SW-620 colon
CAKI-1 renal = system: CAKI-1 renal
OVCAR-5 ovarian = system: OVCAR-5 ovarian
MALME-3M melanoma = system: MALME-3M melanoma
UO-31 renal = system: UO-31 renal
MDA-MB-435 = system: MDA-MB-435
786-0 renal = system: 786-0 renal
TK-10 renal = system: TK-10 renal
HL-60(TB) leukemia = system: HL-60(TB) leukemia
DU-145 prostate = system: DU-145 prostate
HCT-116 colon = system: HCT-116 colon
MCF7 breast = system: MCF7 breast
UACC-62 melanoma = system: UACC-62 melanoma
NCI-H522 lung = system: NCI-H522 lung
OVCAR-3 ovarian = system: OVCAR-3 ovarian
T-47D breast = system: T-47D breast
LOX IMVI melanoma = system: LOX IMVI melanoma
KM12 colon = system: KM12 colon
HCC-2998 colon = system: HCC-2998 colon
U251 CNS = system: U251 CNS
EKVX NSCLC = system: EKVX NSCLC
SF-295 CNS = system: SF-295 CNS
HS 578T breast = system: HS 578T breast
ACHN renal = system: ACHN renal
OVCAR-8 ovarian = system: OVCAR-8 ovarian
NCI-H226 lung = system: NCI-H226 lung
CCRF-CEM leukemia = system: CCRF-CEM leukemia
SNB-75 CNS = system: SNB-75 CNS
NCI-H460 lung = system: NCI-H460 lung
RPMI-8226 leukemia = system: RPMI-8226 leukemia

Q: Which TGI (PC-3 prostate) does the source give for Cc1cc2[nH]c(Cl)c(/C=C3\C(=O)Nc4ccccc43)c2cc1O here?
A: Its TGI is 12.8 µM.

Q: And the TGI (SF-539 CNS)?
A: Its TGI is 4.6 µM.

Q: And the TGI (SK-MEL-5 melanoma)?
A: Its TGI is 12.3 µM.

Q: What about the TGI (SR leukemia) of the same molecule?
A: The TGI was 4.17 µM.

Q: And the TGI (COLO 205 colon)?
A: Its TGI is 30.1 µM.

Q: And the TGI (HOP-62 NSCLC)?
A: The TGI was 25.9 µM.

Q: What about the TGI (MDA-N) of the same molecule?
A: The TGI was 1970 nM.

Q: What about the TGI (A498 renal) of the same molecule?
A: The TGI was 16.1 µM.

Q: What about the TGI (A549 NSCLC) of the same molecule?
A: Its TGI is 21.6 µM.

Q: What about the TGI (NCI-H23 lung) of the same molecule?
A: Its TGI is 10.5 µM.

Q: What about the TGI (HOP-92 NSCLC) of the same molecule?
A: The TGI was 22.8 µM.

Q: What about the TGI (MOLT-4 leukemia) of the same molecule?
A: Its TGI is 32.9 µM.

Q: What about the TGI (NCI/ADR-RES ovarian) of the same molecule?
A: Its TGI is > 48.9 µM.

Q: And the TGI (HCT-15 colon)?
A: Its TGI is 23.3 µM.

Q: And the TGI (M14 melanoma)?
A: Its TGI is 17 µM.

Q: What about the TGI (UACC-257 melanoma) of the same molecule?
A: Its TGI is 23.6 µM.

Q: What about the TGI (RXF 393 renal) of the same molecule?
A: The TGI was 9.66 µM.

Q: And the TGI (MDA-MB-231 breast)?
A: Its TGI is 15.9 µM.

Q: And the TGI (SK-OV-3 ovarian)?
A: The TGI was 19 µM.

Q: What about the TGI (SNB-19 CNS) of the same molecule?
A: Its TGI is 17.2 µM.

Q: And the TGI (HT29 colon)?
A: The TGI was 19.5 µM.

Q: What about the TGI (SF-268 CNS) of the same molecule?
A: The TGI was 18.2 µM.

Q: And the TGI (SN12C renal)?
A: Its TGI is 12.2 µM.

Q: What about the TGI (K-562 leukemia) of the same molecule?
A: Its TGI is 18.8 µM.

Q: And the TGI (BT-549 breast)?
A: The TGI was 25 µM.

Q: And the TGI (SK-MEL-2 melanoma)?
A: The TGI was 12.9 µM.

Q: What about the TGI (OVCAR-4 ovarian) of the same molecule?
A: Its TGI is 25.9 µM.

Q: And the TGI (IGROV1 ovarian)?
A: Its TGI is 10.9 µM.

Q: And the TGI (SK-MEL-28 melanoma)?
A: Its TGI is 24.2 µM.

Q: What about the TGI (SW-620 colon) of the same molecule?
A: Its TGI is 30.7 µM.

Q: What about the TGI (CAKI-1 renal) of the same molecule?
A: Its TGI is 19.7 µM.

Q: And the TGI (OVCAR-5 ovarian)?
A: The TGI was 20.1 µM.

Q: And the TGI (MALME-3M melanoma)?
A: Its TGI is 16.3 µM.

Q: And the TGI (UO-31 renal)?
A: Its TGI is 17.8 µM.

Q: What about the TGI (MDA-MB-435) of the same molecule?
A: The TGI was 1180 nM.

Q: What about the TGI (786-0 renal) of the same molecule?
A: Its TGI is > 37.8 µM.

Q: And the TGI (TK-10 renal)?
A: Its TGI is 23.5 µM.

Q: And the TGI (HL-60(TB) leukemia)?
A: The TGI was 6.16 µM.

Q: What about the TGI (DU-145 prostate) of the same molecule?
A: Its TGI is 12.9 µM.

Q: What about the TGI (HCT-116 colon) of the same molecule?
A: The TGI was > 36.7 µM.

Q: And the TGI (MCF7 breast)?
A: Its TGI is 16.5 µM.

Q: What about the TGI (UACC-62 melanoma) of the same molecule?
A: Its TGI is 9.08 µM.

Q: And the TGI (NCI-H522 lung)?
A: The TGI was 4.66 µM.

Q: What about the TGI (OVCAR-3 ovarian) of the same molecule?
A: Its TGI is 26.7 µM.

Q: And the TGI (T-47D breast)?
A: The TGI was > 56.9 µM.

Q: What about the TGI (LOX IMVI melanoma) of the same molecule?
A: Its TGI is 40 µM.

Q: What about the TGI (KM12 colon) of the same molecule?
A: The TGI was 17.1 µM.

Q: What about the TGI (HCC-2998 colon) of the same molecule?
A: The TGI was 16 µM.

Q: What about the TGI (U251 CNS) of the same molecule?
A: The TGI was 14.4 µM.

Q: What about the TGI (EKVX NSCLC) of the same molecule?
A: Its TGI is 18 µM.

Q: What about the TGI (SF-295 CNS) of the same molecule?
A: Its TGI is 11.3 µM.

Q: What about the TGI (HS 578T breast) of the same molecule?
A: Its TGI is > 100 µM.

Q: What about the TGI (ACHN renal) of the same molecule?
A: Its TGI is 21.6 µM.

Q: And the TGI (OVCAR-8 ovarian)?
A: The TGI was 25.8 µM.

Q: And the TGI (NCI-H226 lung)?
A: Its TGI is 4.31 µM.

Q: And the TGI (CCRF-CEM leukemia)?
A: The TGI was 9.32 µM.

Q: What about the TGI (SNB-75 CNS) of the same molecule?
A: Its TGI is 16.5 µM.

Q: And the TGI (NCI-H460 lung)?
A: Its TGI is 15 µM.

Q: What about the TGI (RPMI-8226 leukemia) of the same molecule?
A: Its TGI is 9.95 µM.

Q: What does the source list for Cn1c(=O)[nH]c2nccnc2c1=O?
A: TGI (PC-3 prostate): > 10 µM; TGI (SF-539 CNS): > 10 µM; TGI (SK-MEL-5 melanoma): > 10 µM; TGI (SR leukemia): > 10 µM; TGI (COLO 205 colon): > 10 µM; TGI (HOP-62 NSCLC): > 10 µM; TGI (MDA-N): > 10000 nM; TGI (A498 renal): > 10 µM; TGI (A549 NSCLC): > 10 µM; TGI (NCI-H23 lung): > 10 µM; TGI (HOP-92 NSCLC): > 10 µM; TGI (MOLT-4 leukemia): > 10 µM; TGI (NCI/ADR-RES ovarian): > 10 µM; TGI (HCT-15 colon): > 10 µM; TGI (M14 melanoma): > 10 µM; TGI (UACC-257 melanoma): > 10 µM; TGI (RXF 393 renal): > 10 µM; TGI (MDA-MB-231 breast): > 10 µM; TGI (SK-OV-3 ovarian): > 10 µM; TGI (SNB-19 CNS): > 10 µM; TGI (HT29 colon): > 10 µM; TGI (SF-268 CNS): > 10 µM; TGI (SN12C renal): > 10 µM; TGI (K-562 leukemia): > 10 µM; TGI (BT-549 breast): > 10 µM; TGI (SK-MEL-2 melanoma): > 10 µM; TGI (OVCAR-4 ovarian): > 10 µM; TGI (IGROV1 ovarian): > 10 µM; TGI (SK-MEL-28 melanoma): > 10 µM; TGI (SW-620 colon): > 10 µM; TGI (CAKI-1 renal): > 10 µM; TGI (OVCAR-5 ovarian): > 10 µM; TGI (MALME-3M melanoma): > 10 µM; TGI (UO-31 renal): > 10 µM; TGI (MDA-MB-435): > 10000 nM; TGI (786-0 renal): > 10 µM; TGI (TK-10 renal): > 10 µM; TGI (HL-60(TB) leukemia): > 10 µM; TGI (DU-145 prostate): > 10 µM; TGI (HCT-116 colon): > 10 µM; TGI (MCF7 breast): > 10 µM; TGI (UACC-62 melanoma): > 10 µM; TGI (NCI-H522 lung): > 10 µM; TGI (OVCAR-3 ovarian): > 10 µM; TGI (T-47D breast): > 10 µM; TGI (LOX IMVI melanoma): > 10 µM; TGI (KM12 colon): > 10 µM; TGI (HCC-2998 colon): > 10 µM; TGI (U251 CNS): > 10 µM; TGI (EKVX NSCLC): > 10 µM; TGI (SF-295 CNS): > 10 µM; TGI (HS 578T breast): > 10 µM; TGI (ACHN renal): > 10 µM; TGI (OVCAR-8 ovarian): > 10 µM; TGI (NCI-H226 lung): > 10 µM; TGI (CCRF-CEM leukemia): > 10 µM; TGI (SNB-75 CNS): > 10 µM; TGI (NCI-H460 lung): > 10 µM; TGI (RPMI-8226 leukemia): > 10 µM
